Where “and” joins values, the source holds several entries; their conditions need not be identical. Identical values can stand only once. Inconclusive results and toxic doses are left out. Rule for the calls: active = survival T/C of 150% or more; inactive = T/C below 125% in these data.
System: CD2F1 mice, L1210 leukemia ip, survival T/C
Test: NCI In Vivo Anticancer Drug Screen. Data for tumor model L1210 Leukemia (intraperitoneal) in CD2F1 (CDF1) mice
Settings: endpoint: mean survival time, higher = longer survival
Procedure, shortened: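 Compound-dosed mice with transplantable tumor versus matched vehicle controls; endpoint ratio T/C reported.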

[1] = dose: 100.0 mg/kg/injection, schedule: Q04DX003 (ip), vehicle: saline with Tween-80
[2] = dose: 200.0 mg/kg/injection, schedule: Q04DX003 (ip), vehicle: saline with Tween-80
[3] = dose: 400.0 mg/kg/injection, schedule: Q04DX003 (ip), vehicle: saline with Tween-80
[4] = dose: 100.0 mg/kg/injection, schedule: Q01DX001 (ip), vehicle: saline with Tween-80
[5] = dose: 200.0 mg/kg/injection, schedule: Q01DX001 (ip), vehicle: saline with Tween-80
[6] = dose: 100.0 mg/kg/injection, schedule: Q04DX002 (ip), vehicle: saline with Tween-80

Measured: T/C

CCCCN1C(=O)C(=O)N(c2ccc(S(N)(=O)=O)cc2)C1=O
inactive: dose: 50.0 mg/kg/injection, schedule: Q01DX009 (ip), vehicle: saline with Tween-80 100 % of control | dose: 100.0 mg/kg/injection, schedule: Q01DX009 (ip), vehicle: saline with Tween-80 89 % of control

N#CCCC1(CCC#N)c2ccccc2-c2ccccc21
inactive: [1] 95 % of control | [2] 100 % of control | [3] 105 % of control

O=[N+]([O-])c1ccc(Sc2ccc(Br)cc2)cc1
inactive: [4] 97 % of control | [5] 106 % of control | dose: 400.0 mg/kg/injection, schedule: Q01DX001 (ip), vehicle: saline with Tween-80 104 % of control

Cc1cc(C(O)CNCCn2cnc3c2c(=O)n(C)c(=O)n3C)ccc1O (stereo unspecified)
inactive: dose: 12.5 mg/kg/injection, schedule: Q01DX005 (ip), vehicle: water 103 % of control | dose: 25.0 mg/kg/injection, schedule: Q01DX005 (ip), vehicle: water 100 % of control | dose: 50.0 mg/kg/injection, schedule: Q01DX005 (ip), vehicle: water 97 % of control | dose: 100.0 mg/kg/injection, schedule: Q01DX005 (ip), vehicle: water 100 % of control | dose: 200.0 mg/kg/injection, schedule: Q01DX005 (ip), vehicle: water 100 % of control

CC(CO)CCC(=O)C(C)C1C2(CC3C4CCC5CC(O)CCC5(C)C4CCC31C)SCCS2 (stereo unspecified)
inactive: [6] 86 % of control | dose: 400.0 mg/kg/injection, schedule: Q04DX002 (ip), vehicle: saline with Tween-80 92 % of control

CC12CS(=O)(=O)CC1O2 (stereo unspecified)
inactive: [1] 101 % of control | [2] 96 % of control | [3] 101 % of control

CCCCCCCCCCCCCCCC(=O)N(CCC#N)CCC#N
inactive: [1] 93 % of control | dose: 200.0 mg/kg/injection, schedule: Q01DX009 (ip), vehicle: saline with Tween-80 97 % of control | [2] 96 % of control | [3] 109 % of control

CNc1ccn(C2OC(CO)C(O)C2O)c(=O)n1 (stereo unspecified)
inactive: dose: 100.0 mg/kg/injection, schedule: Q01DX005 (ip), vehicle: distilled water + Tween-80 107 % of control | dose: 200.0 mg/kg/injection, schedule: Q01DX005 (ip), vehicle: distilled water + Tween-80 104 % of control | dose: 400.0 mg/kg/injection, schedule: Q01DX005 (ip), vehicle: distilled water + Tween-80 107 % of control

O=c1cn[nH]c2c(Br)cc(Br)cc12
inactive: [1] 103 % of control | [2] 97 % of control | [3] 97 % of control

O=C([O][Hg][C](F)(F)F)C(F)(F)F
inactive: dose: 6.25 mg/kg/injection, schedule: Q04DX003 (ip), vehicle: saline 98 % of control

Oc1ccc2c3c1OC1C(O)C=CC4C(C2)NCCC341 (stereo unspecified)
inactive: dose: 25.0 mg/kg/injection, schedule: Q04DX003 (ip), vehicle: DMSO 95 % of control | dose: 50.0 mg/kg/injection, schedule: Q04DX003 (ip), vehicle: DMSO 95 % of control | dose: 100.0 mg/kg/injection, schedule: Q04DX003 (ip), vehicle: DMSO 106 % of control

Cc1ccc(S(=O)(=O)C[n+]2ccc(C(=O)c3ccccc3)cc2)cc1
inactive: dose: 25.0 mg/kg/injection, schedule: Q04DX002 (ip), vehicle: saline with Tween-80 90 % of control | dose: 50.0 mg/kg/injection, schedule: Q04DX002 (ip), vehicle: saline with Tween-80 97 % of control | [6] 97 % of control and 104 % of control

CC1Cc2c([nH]c(=O)n(-c3ccccc3)c2=O)O1 (stereo unspecified)
inactive: dose: 100.0 mg/kg/injection, schedule: Q01DX001 (ip), vehicle: saline 103 % of control | dose: 200.0 mg/kg/injection, schedule: Q01DX001 (ip), vehicle: saline 92 % of control | dose: 400.0 mg/kg/injection, schedule: Q01DX001 (ip), vehicle: saline 92 % of control

COCC(O)CN1CCN(c2cccc3c2CCCC3)CC1 (stereo unspecified)
inactive: [4] 97 % of control | [5] 100 % of control

CSc1ccc(N=C=C(c2ccccc2)c2ccccc2)cc1
inactive: dose: 6.25 mg/kg/injection, schedule: Q01DX009 (ip), vehicle: saline with Tween-80 96 % of control | dose: 12.5 mg/kg/injection, schedule: Q01DX009 (ip), vehicle: saline with Tween-80 94 % of control | dose: 25.0 mg/kg/injection, schedule: Q01DX009 (ip), vehicle: saline with Tween-80 94 % of control | [1] 93 % of control | [2] 95 % of control | [3] 97 % of control

From PubChem BioAssay AID256 (DTP/NCI, 2004)
